In ChEMBL document CHEMBL5512620, “Design and synthesis of forsythin derivatives as anti-inflammatory agents for acute lung injury” (Eur J Med Chem, 2024) one finds Activity data, which are given here for 8 compounds.

In the series the test system is RAW264.7. Nature of the series: Cytotoxicity activity mouse RAW264.7 cells assessed as effect on cell viability at 25 uM incubated for 24 hrs by MTT assay. The series is classed as toxicity, cell-based. The conditions noted are these: raw264.7, 24 h. A general note: Tetrazolium assays rely on reduction of a dye to a coloured formazan, in cell work by metabolically active cells.

Regarding `COc1cccc(C(=O)OC[C@H]2O[C@H](Oc3ccc([C@H]4OC[C@H]5[C@@H]4CO[C@H]5c4ccc(OC)c(OC)c4)cc3OC)[C@H](O)[C@@H](O)[C@@H]2O)c1`, the Activity result is “Non-Toxic”. Turning to `COc1ccc([C@@H]2OC[C@H]3[C@@H]2CO[C@@H]3c2ccc(O[C@H]3O[C@H](COC(=O)c4cn(-c5ccc(F)cc5)nn4)[C@@H](O)[C@H](O)[C@H]3O)c(OC)c2)cc1OC`, the Activity result is “Non-Toxic”.

On to `COc1ccc(/C=C/C(=O)OC[C@H]2O[C@H](Oc3ccc([C@H]4OC[C@H]5[C@@H]4CO[C@H]5c4ccc(OC)c(OC)c4)cc3OC)[C@H](O)[C@@H](O)[C@@H]2O)cc1`, for which the Activity entry is listed as “Non-Toxic”. In the case of `COc1ccc([C@H]2OC[C@@H]3[C@H]2CO[C@@H]3c2ccc(O[C@@H]3O[C@@H](COC(=O)c4cc5ccccc5cn4)[C@H](O)[C@@H](O)[C@@H]3O)c(OC)c2)cc1OC` (stereo in doubt), the Activity entry was “Non-Toxic”. Regarding `COc1ccc([C@H]2OC[C@@H]3[C@H]2CO[C@@H]3c2ccc(O[C@@H]3O[C@@H](COC(=O)c4nccc5ccccc45)[C@H](O)[C@@H](O)[C@@H]3O)c(OC)c2)cc1OC` (stereo in doubt), the Activity entry is reported as “Non-Toxic”. The entry for `COc1ccc([C@H]2OC[C@@H]3[C@H]2CO[C@@H]3c2ccc(O[C@@H]3O[C@@H](COC(=O)c4cnc5ccccc5c4)[C@H](O)[C@@H](O)[C@@H]3O)c(OC)c2)cc1OC` (stereo in doubt) is “Non-Toxic”; for `COc1ccc([C@@H]2OC[C@H]3[C@@H]2CO[C@@H]3c2ccc(O[C@H]3O[C@H](COC(=O)/C=C/c4ccccc4)[C@@H](O)[C@H](O)[C@H]3O)c(OC)c2)cc1OC` it is “Non-Toxic”; for `COc1ccc([C@@H]2OC[C@H]3[C@@H]2CO[C@@H]3c2ccc(O[C@H]3O[C@H](COC(=O)[C@H](Cc4c[nH]c5ccccc45)NC(=O)OC(C)(C)C)[C@@H](O)[C@H](O)[C@H]3O)c(OC)c2)cc1OC` it is “Non-Toxic”.
